The record followed here is patent US20260159525A1, “TRICYCLIC HETEROCYCLES” (Merck Patent GmbH, priority 2021, published 2026).

Holding throughout (assay type): cell-based
One assay deals with YAP-TEAD interaction. Kind of assay: SK-HEP-1 reporter assay (8x TEAD responsive elements driving NanoLuc luciferase). The note with it: Homo sapiens, SK-HEP1, SK-HEP-1 cells, 24 hour incubation. The gist of the method: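 SK-HEP-1 cells carrying a stably integrated 8× TEAD-element NanoLuc reporter, seeded 24 h before dosing, were treated in duplicate with a 10-point dose series (top 30 μM final, 0.3% DMSO) for 24 h at 37°C, 5% CO2. Luciferase activity read by NanoGlo luminescence; IC50 derived from it.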
(In general: Reporter assays use an easily measured gene product as a stand-in for the process of interest.)

A further assay relates to NCI-H226 cells. Kind of assay: Viability assay in NCI-H226 (Yap-dependent) cells, CyQUANT. The note with it: Homo sapiens, NCI-H226 YAP dependent cell line, 96 hour incubation, group symbols. As for the experimental part:
(§1) Viability Assay in NCI-H226 (Yap-Dependent) and SW620 Yap KO (Yap Independent) Cells
(§2) The ability of YAP-TEAD inhibitors to inhibit tumor cell growth was evaluated using two different cell lines: NCI-H226, which is a YAP dependent cell line, and SW620 cells, where YAP and TAZ were knocked out using CRISPR to generate a YAP independent cell line.
(§3) For the assay, cells were treated in duplicates with the test compounds in a 10-point dose, 1:3 dilution steps, with the top concentration starting at 30 μM (final concentration in assay). After a 96 hour incubation at 37° C., 95% rH, and 5% CO2, a cell-permeant DNA-binding dye that stains only healthy cells (CyQUANT®, Promega) was added to the cells, allowing the quantification of cell viability.
(§4) Cell Media: The NCI-H226 cells were cultured in the following media: RPMI 1640, +10% FBS, +1× GlutaMAX, +10 mM HEPES, +0.5% Pen/Strep. The SW620-KO cells were cultured in the following media: DMEM/F-12, +10% FBS, +1× GlutaMAX, +10 mM HEPES, +0.5% Pen/Strep.
(§5) Reagents: The reagents used are listed below:
(§6) Cell culture: The cells were examined using an inverted microscope to check for health, cell density, etc. To dissociate adherent cells, the monolayer of cells was washed once with pre-warmed PBS. After removing the PBS, 3 ml pre-warmed Accutase was added to a F75 flask, dispersed evenly and the flask was allowed to sit in incubator for ˜4-5 minutes.
(§7) When a single cell suspension was obtained, 7 ml of prewarmed growth media was added and resuspended with the cells. The cell suspension was transferred to a sterile 15 ml conical centrifuge tube, and spun for 5 min at 300×g, RT. The supernatant was discarded and the pellet was resuspended in 10 ml of pre-warmed growth media.
(§8) The total cell count was determined, and 20 μl of the desired cell number was added to each well of a 384 well plate using a Multidrop Combi. The plates were then incubated for 24 hours at 37° C., 95% rH, and 5% CO2.
(§9) Compound treatment: 24 hours after seeding, the cells were treated with compounds.
(§10) A 1:333 dilution of compounds, diluted in DMSO, was made to get a final concentration of 0.3% DMSO per well. To transfer the compounds to the assay plate, 120 nl was shot from Labcyte low dead volume plates to the cell plates containing 20 μl media/well with the ECHO 555 liquid handling system. After treatment, the cells were fed with 20 μl fresh pre-warmed assay media using a Multidrop combi.
(§11) The assay plates were then incubated for 96 h at 37° C., 95% rH, and 5% CO2.
(§12) 96 h after treatment 30 μl of CyQuant® reagent was added to the assay plates using a Multidrop combi in the dark. The plates were then incubated for 1 hour at 37° C., 95% rH and 5% CO2. Thereafter, the assay plates were removed from the incubator and allowed to equilibrate to RT for 30 min in the dark without lid. Finally, they were measured using an EnVision microplate reader with a FITC bottom read program.

The test system of the next assay is SW620 Yap KO cells. The assay is described as follows: Viability assay in SW620 Yap KO (Yap independent) cells, CyQUANT. Particulars: Homo sapiens, SW-620, SW620 YAP and TAZ knocked out (YAP independent), 96 hour incubation, n.d. (x) = not detectable below threshold x. As for the experimental part: as §1, §2, §3, §4, §5, §6, §7, §8, §9, §10, §11, §12

The mark [1] stands for this setting: number, or n.d. (x) = not detectable below threshold x.

Structures are written as SMILES. pIC50: −log10 of the molar value. Where only a bound is given, the exact number is not on record here.

Broadly, the pIC50 is the negative decadic logarithm of the IC50, by convention in mol/L. Read a low pIC50 as a large IC50. For the compound `Cn1cc2c3cc(C(=O)NCCO)sc3n(-c3ccc(C(F)(F)F)cc3)c2n1` [Compound 64, N-(2-hydroxyethyl)-4-methyl-7-[4-(trifluoromethyl)phenyl]-9-thia-4,5,7-triazatricyclo[6.3.0.0^2,6]undeca-1(8),2,5,10-tetraene-10-carboxamide], the pIC50 is < 6.02 in the assay with YAP-TEAD interaction (setting [1]), 7.00 to 9.00 in the assay on NCI-H226 cells and < 5.52 in the assay on SW620 Yap KO cells.

On to `C[C@H](CO)NC(=O)c1cc2c3cn(C)nc3n(-c3ccc(C(F)(F)F)cc3)c2s1` [Compound 33, N-[(2R)-1-hydroxypropan-2-yl]-4-methyl-7-[4-(trifluoromethyl)phenyl]-9-thia-4,5,7-triazatricyclo[6.3.0.0^2,6]undeca-1(8),2,5,10-tetraene-10-carboxamide], for which the pIC50 in the assay with YAP-TEAD interaction (group symbols) is 7.00 to 8.00; in the assay with NCI-H226 cells it was 7.00 to 9.00; in the assay with SW620 Yap KO cells, < 5.49.

`CNC(=O)c1cc2c3cn(C)nc3n(-c3ccc(OC(F)(F)F)cc3)c2s1` [Compound 49, N,4-dimethyl-7-[4-(trifluoromethoxy)phenyl]-9-thia-4,5,7-triazatricyclo[6.3.0.0^2,6]undeca-1(8),2,5,10-tetraene-10-carboxamide]: the results for the pIC50 in the assay on YAP-TEAD interaction (group symbols), with NCI-H226 cells and in the assay with SW620 Yap KO cells were 7.00 to 8.00, 7.00 to 9.00 and < 5.52, respectively.

In the case of `C[C@H](CO)NC(=O)c1cc2c3cn(C)nc3n(-c3ccc(OC(F)F)cn3)c2s1` [Compound 123, 7-[5-(difluoromethoxy)pyridin-2-yl]-N-[(2R)-1-hydroxypropan-2-yl]-4-methyl-9-thia-4,5,7-triazatricyclo[6.3.0.0^2,6]undeca-1(8),2,5,10-tetraene-10-carboxamide], the pIC50 in the assay with YAP-TEAD interaction (setting [1]) is < 6.52; with NCI-H226 cells, 7.00 to 9.00; with SW620 Yap KO cells, < 4.52.

Consider `Cn1cc2c3cc(C(=O)N4CC[C@@H](O)C4)sc3n(-c3ccc(C(F)(F)F)cc3)c2n1` [Compound 67, (3R)-1-{4-methyl-7-[4-(trifluoromethyl)phenyl]-9-thia-4,5,7-triazatricyclo[6.3.0.0^2,6]undeca-1(8),2,5,10-tetraene-10-carbonyl}pyrrolidin-3-ol], for which the values for the pIC50 with YAP-TEAD interaction (setting [1]), in the assay with NCI-H226 cells and in the assay on SW620 Yap KO cells were < 5.02, 6.00 to 7.00 and < 5.52, respectively.

Take `COCCC(CO)NC(=O)c1cc2c3cn(C)nc3n(-c3ccc(C(F)(F)F)cc3)c2s1` (racemic) [Compound 63, N-(1-hydroxy-4-methoxybutan-2-yl)-4-methyl-7-[4-(trifluoromethyl)phenyl]-9-thia-4,5,7-triazatricyclo[6.3.0.0^2,6]undeca-1(8),2,5,10-tetraene-10-carboxamide]: the pIC50 with YAP-TEAD interaction (setting [1]) is < 5.02; in the assay with NCI-H226 cells, 7.00 to 9.00; in the assay with SW620 Yap KO cells, < 5.52.

As for `Cn1cc2c3cc(C(=O)N=[S@](C)(=O)CCCO)sc3n(-c3ccc(C(F)(F)F)cc3)c2n1` (single isomer, unassigned) [Compound 62], the negative logarithm of the IC50 (pIC50) with YAP-TEAD interaction (setting [1]) was < 6.52; in the assay with NCI-H226 cells, 6.00 to 7.00; with SW620 Yap KO cells it was < 5.52.

Turning to `Cn1cc2c3cc(C(=O)O)sc3n([C@H]3CC[C@H](C(F)(F)F)CC3)c2n1` [Compound 52, 4-methyl-7-[(1r,4r)-4-(trifluoromethyl)cyclohexyl]-9-thia-4,5,7-triazatricyclo[6.3.0.0^2,6]undeca-1(8),2,5,10-tetraene-10-carboxylic acid], the pIC50 in the assay with YAP-TEAD interaction (group symbols) is 7.00 to 8.00; in the assay with NCI-H226 cells, 7.00 to 9.00; in the assay on SW620 Yap KO cells, < 4.52.

For the compound `Cn1cc2c3cc(C(=O)O)sc3n(-c3ccc(SC(F)(F)F)cc3)c2n1` [Compound 40, 4-methyl-7-{4-[(trifluoromethyl)sulfanyl]phenyl}-9-thia-4,5,7-triazatricyclo[6.3.0.0^2,6]undeca-1(8),2,5,10-tetraene-10-carboxylic acid], the pIC50 with YAP-TEAD interaction (group symbols) is 7.00 to 8.00; with NCI-H226 cells it was 7.00 to 9.00; with SW620 Yap KO cells, < 4.52.

Turning to `Cn1cc2c3cc(C(=O)O)sc3n(-c3ccc(OC(F)(F)F)cn3)c2n1` [Compound 118, 4-methyl-7-[5-(trifluoromethoxy)pyridin-2-yl]-9-thia-4,5,7-triazatricyclo[6.3.0.0^2,6]undeca-1(8),2,5,10-tetraene-10-carboxylic acid], the figures for the negative logarithm of the IC50 (pIC50) with YAP-TEAD interaction (group symbols), in the assay on NCI-H226 cells and in the assay with SW620 Yap KO cells were 7.00 to 8.00, 6.00 to 7.00 and < 4.52, respectively.

On to `CC[C@H](CO)NC(=O)c1cc2c3cn(C)nc3n(-c3ccc(C(F)(F)F)cc3)c2s1` [Compound 93, N-[(2R)-1-hydroxybutan-2-yl]-4-methyl-7-[4-(trifluoromethyl)phenyl]-9-thia-4,5,7-triazatricyclo[6.3.0.0^2,6]undeca-1(8),2,5,10-tetraene-10-carboxamide], for which the results for the pIC50 in the assay on YAP-TEAD interaction (group symbols), in the assay on NCI-H226 cells and in the assay on SW620 Yap KO cells were 7.00 to 8.00, 7.00 to 9.00 and < 5.52, respectively.

As for `C[C@H](CO)NC(=O)c1cc2c3cn(C)nc3n(-c3ccc(OC(F)(F)F)cn3)c2s1` [Compound 126, N-[(2R)-1-hydroxypropan-2-yl]-4-methyl-7-[5-(trifluoromethoxy)pyridin-2-yl]-9-thia-4,5,7-triazatricyclo[6.3.0.0^2,6]undeca-1(8),2,5,10-tetraene-10-carboxamide], the pIC50 was 7.00 to 8.00 in the assay on YAP-TEAD interaction (group symbols), 7.00 to 9.00 in the assay on NCI-H226 cells and < 4.52 with SW620 Yap KO cells.

With `C[C@@H](CO)NC(=O)c1cc2c3cn(C)nc3n(-c3ccc(C(F)(F)F)cc3)c2s1` [Compound 68, N-[(2S)-1-hydroxypropan-2-yl]-4-methyl-7-[4-(trifluoromethyl)phenyl]-9-thia-4,5,7-triazatricyclo[6.3.0.0^2,6]undeca-1(8),2,5,10-tetraene-10-carboxamide], the pIC50 in the assay with YAP-TEAD interaction (setting [1]) is < 6.02; with NCI-H226 cells, 7.00 to 9.00; in the assay with SW620 Yap KO cells, < 5.52.

For the compound `CCNC(=O)c1cc2c3cn(C)nc3n(-c3ccc(C(F)(F)F)cc3)c2s1` [Compound 46, N-ethyl-4-methyl-7-[4-(trifluoromethyl)phenyl]-9-thia-4,5,7-triazatricyclo[6.3.0.0^2,6]undeca-1(8),2,5,10-tetraene-10-carboxamide], the pIC50 in the assay on YAP-TEAD interaction (group symbols) was 8.00 to 9.00; in the assay on NCI-H226 cells, 7.00 to 9.00; in the assay on SW620 Yap KO cells, < 5.52.

`Cn1cc2c3cc(C(=O)N[C@@H](CO)c4ccccn4)sc3n(-c3ccc(OC(F)F)cn3)c2n1` [Compound 122, 7-[5-(difluoromethoxy)pyridin-2-yl]-N-[(1R)-2-hydroxy-1-(pyridin-2-yl)ethyl]-4-methyl-9-thia-4,5,7-triazatricyclo[6.3.0.0^2,6]undeca-1(8),2,5,10-tetraene-10-carboxamide]: the pIC50 with YAP-TEAD interaction (group symbols) was 5.00 to 7.00; with NCI-H226 cells it was 7.00 to 9.00; in the assay on SW620 Yap KO cells, < 4.52.

On to `Cn1nc2c3sc(C(=O)O)cc3n(-c3ccc(OC(F)(F)F)cc3)c2n1` [Compound 27, 4-methyl-7-[4-(trifluoromethoxy)phenyl]-11-thia-3,4,5,7-tetraazatricyclo[6.3.0.0^2,6]undeca-1(8),2,5,9-tetraene-10-carboxylic acid], for which the values for the pIC50 with YAP-TEAD interaction (group symbols), in the assay on NCI-H226 cells and in the assay on SW620 Yap KO cells were 7.00 to 8.00, 6.00 to 7.00 and < 4.52, respectively.

On to `Cc1nc2c3sc(C(=O)O)cc3n(-c3ccc(C(F)(F)F)cc3)c2s1` [Compound 22, 4-methyl-7-[4-(trifluoromethyl)phenyl]-5,11-dithia-3,7-diazatricyclo[6.3.0.0^2,6]undeca-1(8),2(6),3,9-tetraene-10-carboxylic acid], for which the pIC50 was 7.00 to 8.00 in the assay with YAP-TEAD interaction (group symbols), 6.00 to 7.00 with NCI-H226 cells and < 4.52 in the assay with SW620 Yap KO cells.

For the compound `Cn1cnc2c1c1sc(C(=O)O)cc1n2-c1ccc(C(F)(F)F)cc1` [Compound 20, 3-methyl-7-[4-(trifluoromethyl)phenyl]-11-thia-3,5,7-triazatricyclo[6.3.0.0^2,6]undeca-1(8),2(6),4,9-tetraene-10-carboxylic acid], the pIC50 is 7.00 to 8.00 with YAP-TEAD interaction (group symbols), 6.00 to 7.00 in the assay with NCI-H226 cells and < 4.52 with SW620 Yap KO cells.
